Results reported in patent US20260258016A1, “SUBSTITUTED PYRIDAZINE-3-CARBOXAMIDE COMPOUND SERVING AS TYK2 INHIBITOR” (Guangzhou Fermion Technology Co., Ltd., priority 2022, published 2026).
Like-named read-outs stand apart in the source and are kept apart here. Blank lines part the entries; values can stand above or below the molecule they belong to.

Tests used:
JAK1 JH1 = biological target: T1, JAK1 JH1 (Homo sapiens, UniProt P23458); assay: JAK1 JH1 kinase inhibition (HTRF); format: biochemical; settings: read-out: Inhibition on kinase activity (IC50, μM) JAKI JHI
T1 construct: 5 μL/well of 2×JAK1 JH1/JAK2 JH1/JAK3 JH1/TYK2 JH1 kinase solutions

JAK2 JH1 = biological target: T2, JAK2 JH1 (Homo sapiens, UniProt O60674); assay: JAK2 JH1 kinase inhibition (HTRF); format: biochemical; settings: read-out: Inhibition on kinase activity (IC50, μM) JAK2 JHI
T2 construct: 5 μL/well of 2×JAK1 JH1/JAK2 JH1/JAK3 JH1/TYK2 JH1 kinase solutions
Description: (§1) After the completion of incubation, 5 μL of a mixed solution containing a 2×TK-SUB-biotin substrate and ATP was added to each well, uniformly mixed by centrifugation, and incubated at 25° C. for 45 minutes (JAK1/JAK2) or 60 minutes (JAK3/TYK2). After completion of incubation, 10 μL of an assay mixture (TK Antibody-EU and Streptavidin-XL mixture) was added to each well, uniformly mixed by centrifugation, and incubated at 25° C. for 60 minutes (JAK1/JAK2) or 120 minutes (JAK3/TYK2). After completion of incubation, the solutions were transferred to a 4° C. freezer for incubation overnight, and fluorescence values were read on an Envision 2104 Multilabel Reader, and the IC50 of the compound was calculated using XL-Fit software.

JAK3 JH1 = biological target: T3, JAK3 JH1 (Homo sapiens, UniProt P52333); assay: JAK3 JH1 kinase inhibition (HTRF); format: biochemical; settings: read-out: Inhibition on kinase activity (IC50, μM) JAK3 JHI
T3 construct: 5 μL/well of 2×JAK1 JH1/JAK2 JH1/JAK3 JH1/TYK2 JH1 kinase solutions
Description: as §1

TYK2 JH2 pseudokinase = TYK2 JH2 pseudokinase (Homo sapiens, UniProt P29597); assay: In vitro TYK2 JH2 enzyme binding assay (TR-FRET)
TYK2 JH1 = biological target: T4, TYK2 JH1 (Homo sapiens, UniProt P29597); assay: TYK2 JH1 kinase inhibition (HTRF); format: biochemical; settings: read-out: Inhibition on kinase activity (IC50, μM) TYK2 JHI
T4 construct: 5 μL/well of 2×JAK1 JH1/JAK2 JH1/JAK3 JH1/TYK2 JH1 kinase solutions
T4 sequence (P29597 897-1176 limits assumed): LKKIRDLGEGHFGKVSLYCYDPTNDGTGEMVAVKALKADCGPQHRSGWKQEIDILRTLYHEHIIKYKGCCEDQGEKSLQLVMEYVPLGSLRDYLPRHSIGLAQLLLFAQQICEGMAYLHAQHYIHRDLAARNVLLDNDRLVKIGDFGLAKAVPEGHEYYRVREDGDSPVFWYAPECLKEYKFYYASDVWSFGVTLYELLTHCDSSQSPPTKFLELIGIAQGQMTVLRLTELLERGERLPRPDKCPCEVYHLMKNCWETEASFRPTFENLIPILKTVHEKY
Description: as §1

[1] = test system: IL-2-induced STAT5 phosphorylation (JAK1/3) in CD3+ cells of human PBMC; assay: IL-2-induced STAT5 phosphorylation (JAK1/3) in CD3+ cell subpopulations in human PBMC, flow cytometry; format: cell-based; settings: IL-2 stimulation 20 min, read-out: IL-2-induced CD3+ pSTAT5 (JAK1/3) in hPBMC (IC50)
Description: Purpose: The purpose of this test case was to test the inhibitory effect of the compound on IL-2-induced STAT5 phosphorylation using protein phosphorylation flow cytometric analysis technology.
Human PBMC cells were pre-incubated with the compounds, STAT5 was induced to phosphorylate under appropriate stimulation conditions, and corresponding cell subpopulations and targets were stained. Flow cytometry was used to read cell data and analyze the strength of phosphorylated antibody signals under different compound concentrations. PBMCs were resuspended and dispensed into a 96-well plate, 62.5 μL/well. 3.5 μL of 20× compound working solutions were added and incubated at 37° C. for 30 minutes. 5 μL of PE mouse anti-human CD3 (BD) was added and incubated for 30 min at 37° C. in the dark. 4 μL of 20×IL-2 (R&D) was added to each well and incubated at 37° C. in the dark for 20 minutes. All cells in the 96-well plate were transferred to a deep-well plate, 400 μL of a fixation working solution (Biolegend) was added to each well, and incubated at room temperature in the dark for 20 minutes. The cells were washed twice with PBS, and 400 μL of Perm Buffer III (BD) was added and incubated at 4° C. in the dark for 40 minutes. The cells were washed twice with PBS, and 100 μL of a STAT5 pY694 antibody working solution (BD) was added and incubated at room temperature for 40 minutes. After washing once with PBS, the cells were resuspended in 200 μL of a staining buffer and transferred to a sample plate. The antibody fluorescence intensity was analyzed using FlowJo software, and the IC50 of the compound was calculated using XL-Fit software.

Sequence of TYK2 JH2 pseudokinase (P29597 589-875 limits assumed): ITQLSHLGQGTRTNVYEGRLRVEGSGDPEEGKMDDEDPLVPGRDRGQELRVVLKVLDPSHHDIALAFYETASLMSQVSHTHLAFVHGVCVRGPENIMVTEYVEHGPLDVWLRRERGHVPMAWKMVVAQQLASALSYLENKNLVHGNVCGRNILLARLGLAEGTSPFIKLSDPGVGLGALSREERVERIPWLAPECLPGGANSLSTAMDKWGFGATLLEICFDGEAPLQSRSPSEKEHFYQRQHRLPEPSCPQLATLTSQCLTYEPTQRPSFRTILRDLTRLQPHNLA
T2 sequence (O60674 849-1124 limits assumed): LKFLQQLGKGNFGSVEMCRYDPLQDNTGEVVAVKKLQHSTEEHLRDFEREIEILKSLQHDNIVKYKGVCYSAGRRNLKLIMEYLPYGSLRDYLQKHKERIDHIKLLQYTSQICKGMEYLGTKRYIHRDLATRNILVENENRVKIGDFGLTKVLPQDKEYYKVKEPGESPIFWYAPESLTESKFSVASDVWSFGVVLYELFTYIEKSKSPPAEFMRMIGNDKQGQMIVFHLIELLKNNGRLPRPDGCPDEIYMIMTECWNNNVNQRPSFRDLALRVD
T1 sequence (P23458 875-1153 limits assumed): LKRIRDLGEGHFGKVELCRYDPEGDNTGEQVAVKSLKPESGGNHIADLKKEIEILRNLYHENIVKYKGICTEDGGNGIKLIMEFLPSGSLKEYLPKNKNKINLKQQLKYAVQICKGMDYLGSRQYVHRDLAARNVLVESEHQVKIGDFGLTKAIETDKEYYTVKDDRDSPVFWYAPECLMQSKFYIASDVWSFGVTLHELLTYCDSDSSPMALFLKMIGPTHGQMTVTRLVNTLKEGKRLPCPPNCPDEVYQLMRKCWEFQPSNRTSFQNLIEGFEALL
T3 sequence (P52333 822-1111 limits assumed): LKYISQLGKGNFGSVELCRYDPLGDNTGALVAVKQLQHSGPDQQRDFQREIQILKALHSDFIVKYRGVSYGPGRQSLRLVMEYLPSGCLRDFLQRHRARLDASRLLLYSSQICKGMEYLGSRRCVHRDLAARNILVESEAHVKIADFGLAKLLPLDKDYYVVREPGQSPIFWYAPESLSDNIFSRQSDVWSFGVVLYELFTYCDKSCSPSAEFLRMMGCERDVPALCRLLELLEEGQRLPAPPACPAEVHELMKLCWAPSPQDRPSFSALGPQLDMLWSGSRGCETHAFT

IC50 (JAK1 JH1): > 10 µM
IC50 (JAK2 JH1): > 10 µM
IC50 (JAK3 JH1): > 10 µM
IC50 (TYK2 JH2 pseudokinase): 0.19 nM
IC50 (TYK2 JH1): > 10 µM
Molecule: CCONC(=O)c1nnc(NC(=O)C2CC2)cc1Nc1cccc(-c2ncn(CCOC)n2)c1OC [Compound 2, 6-(Cyclopropylcarboxamido)-N-ethoxy-4-((2-methoxy-3-(1-(2-methoxyethyl)-1H-1,2,4-triazol-3-yl)phenyl)amino)pyridazine-3-carboxamide]
IC50 ([1]; 20 min): > 30000 nM

IC50 (TYK2 JH2 pseudokinase): 0.29 nM
Molecule: CCONC(=O)c1nnc(NC(=O)C2CC2)cc1Nc1cccc(-c2ncn(CCC(=O)O)n2)c1OC [Compound 8, 3-(3-(3-((6-(Cyclopropylcarboxamido)-3-(ethoxycarbamoyl)pyridazine-4-yl)amino)-2-methoxyphenyl)-1H-1,2,4-triazol-1-yl)propanoic acid]

IC50 (TYK2 JH2 pseudokinase): 0.26 nM
Molecule: CCONC(=O)c1nnc(NC(=O)C2CC2)cc1Nc1cccc(-c2ncn(CC(F)F)n2)c1OC [Compound 5, 6-(Cyclopropylcarboxamido)-4-((3-(1-(2,2-difluoroethyl)-1H-1,2,4-triazol-3-yl)-2-methoxyphenyl)amino)-N-ethoxypyridazine-3-carboxamide]

IC50 (TYK2 JH2 pseudokinase): 0.42 nM
Molecule: CCONC(=O)c1nnc(NC(=O)C2CC2)cc1Nc1cccc(-c2ncn(CCCC(=O)O)n2)c1OC [Compound 9, 4-(3-(3-((6-(Cyclopropylcarboxamido)-3-(ethoxycarbamoyl)pyridazine-4-yl)amino)-2-methoxyphenyl)-1H-1,2,4-triazol-1-yl)butanoic acid]

IC50 (TYK2 JH2 pseudokinase): 0.29 nM
Molecule: CCONC(=O)c1nnc(NC(=O)C2CC2)cc1Nc1cccc(-c2ncn(CC(=O)O)n2)c1OC [Compound 7, 2-(3-(3-((6-(Cyclopropylcarboxamido)-3-(ethoxycarbamoyl)pyridazine-4-yl)amino)-2-methoxyphenyl)-1H-1,2,4-triazol-1-yl)acetic acid]

IC50 (JAK1 JH1): > 10 µM
IC50 (JAK2 JH1): > 10 µM
IC50 (JAK3 JH1): > 10 µM
IC50 (TYK2 JH2 pseudokinase): 0.21 nM
IC50 (TYK2 JH1): > 10 µM
Molecule: CCONC(=O)c1nnc(NC(=O)C2CC2)cc1Nc1cccc(-c2nc[nH]n2)c1OC [Compound 1, 6-(Cyclopropylcarboxamido)-N-ethoxy-4-((2-methoxy-3-(1H-1,2,4-triazol-3-yl)phenyl)amino)pyridazine-3-carboxamide]
IC50 ([1]; 20 min): > 30000 nM

IC50 (TYK2 JH2 pseudokinase): 0.28 nM
Molecule: CCONC(=O)c1nnc(NC(=O)C2CC2)cc1Nc1cccc(-c2ncn(CCO)n2)c1OC [Compound 10, 6-(Cyclopropylcarboxamide)-N-ethoxy-4-((3-(1-(2-hydroxyethyl)-1H-1,2,4-triazol-3-yl)-2-methoxyphenyl)amino)pyridazine-3-carboxamide]

IC50 (TYK2 JH2 pseudokinase): 0.18 nM
Molecule: CCONC(=O)c1nnc(NC(=O)C2CC2)cc1Nc1cccc(-c2ncn(CCF)n2)c1OC [Compound 4, 6-(Cyclopropylcarboxamido)-N-ethoxy-4-((3-(1-(2-fluoroethyl)-1H-1,2,4-triazol-3-yl)-2-methoxyphenyl)amino)pyridazine-3-carboxamide]

Molecule: BMS-986165 [reference compound]
IC50 [1]: 409 nM
